Data published in PMC6154745 (Oncotarget, 2018).
Marks after values point to notes of the source that are not given here.

Assays:
lung miRNAs = assay: miRNA expression (microarray), Study 3, lung; format: in vivo, ICR (CD-1) mice
Experimental: (§1) Each group was composed of 10 female mice.
(§2) The urine was collected for 8 h and pooled from the mice belonging to each experimental group in Study 3 by using metabolic cages during the day preceding euthanasia of mice. Immediately after sacrifice, a bronchoalveolar lavage (BAL) was performed and used for preparing BALF, and the blood was collected and used for preparing serum. BALF and blood serum were pooled within each experimental group. The organs reported in the general design of the studies were collected, as previously described. Immediately after collection, each organ or fluid was immersed in RNAlater and kept at -80°C for miRNA analysis. Portions of the organs used in Study 1 and Study 2 were stored at -80°C for evaluating DNA damage.
(§3) For evaluating the expression of pulmonary miRNAs we used the 7th generation miRCURY LNA™ microRNA Array (Exiqon), which contains 3,100 capture probes covering human, mouse and rat miRNAs. In particular, this array covers 1,135 mouse miRNAs, i.e. the 88.6% of the 1,281 mouse miRNAs listed in miRBase 19. Microarray analyses were carried out as previously described.
(§4) Treatment-related differences in body weights, in the frequency of MN NCE, and in the levels of pulmonary DNA adducts and 8-oxo-dGuo, all of them expressed as means ± SE within each group of mice, were evaluated for statistical significance by ANOVA followed by Student's t test for unpaired data. miRNA microarray data, after local background subtraction, log transformation, and normalization were analyzed by GeneSpring software (Agilent, Santa Clara, CA), and expression data were median centered by using the GeneSpring normalization option.

[1] = mice, 1,000 mg/kg diet; cited from earlier work
spleen miRNAs = assay: miRNA expression (microarray), Study 3, spleen; format: in vivo, ICR (CD-1) mice
Experimental: as §1, §2, §3, §4

kidney miRNAs = assay: miRNA expression (microarray), Study 3, kidney; format: in vivo, ICR (CD-1) mice
Experimental: as §1, §2, §3, §4

Body weight, Study 1 = format: in vivo, Swiss H mice; settings: after 10 weeks
Text: (§5) Strain H neonatal mice, used in Study 1, were born at the Animal Laboratory of the National Center of Oncology (Sofia, Bulgaria). The mice were housed in Makrolon™ cages on sawdust bedding and maintained on standard rodent chow (Kostinbrod, Bulgaria) and allowed drinking water ad libitum. Swiss ICR (CD-1) mice, either neonatal (Study 2) or two- month old (Study 3), were purchased from Harlan Laboratories (San Pietro al Natisone, Udine, Italy). The mice were housed in Makrolon™ cages on sawdust bedding and maintained on standard rodent chow (Teklad 9607, Harlan Laboratories) and tap water ad libitum. The animal room temperature was 23 ± 2°C, with a relative humidity of 55% and a 12 h day-night cycle. Housing and treatments of mice were in accordance with NIH, European (2010/63 UE Directive), and institutional guidelines. The issuance of the NIH Office of Laboratory Animal Welfare (OLAW) with the University of Genoa bears the identification number A5899-01 and is effective until February 28, 2021. The Institutional Animal Care and Use Committee (IACUC) protocol was approved by the Fox Chase Cancer Center Committee on April 13, 2015.
(§6) In Study 1 and Study 2, feeding of the drug-containing diet started after weanling (about 4 weeks) and continued until the 10th week of life.
as §4

heart DNA = assay: Bulky DNA adducts by 32P postlabeling, Study 2, heart; format: in vivo, ICR (CD-1) mice; settings: for Bulky DNA adducts: Heart; for decrease of DNA adduct levels vs MCS-exposed mice without celecoxib / increase of DNA adduct levels over sham-exposed mice: heart
Experimental: as §1
(§7) DNA was extracted from tissue specimens (50 mg) collected individually from the lungs of 40 Swiss H mice used in Study 1 and from lungs, heart and liver of 80 ICR (CD-1) mice used in Study 2, as previously described. Bulky DNA adducts, after butanol enrichment, and 8-hydroxy-2’-deoxyguanosine (8-oxo-dGuo) were measured by ^32P postlabeling as previously described.

lung DNA = assay: Bulky DNA adducts in lung by 32P postlabeling, Study 1; format: in vivo, Swiss H mice
Experimental: as §1, §7

Body weight, Study 3 = format: in vivo, ICR (CD-1) mice; settings: in g
Text: as §1, §5
Celecoxib was supplied by the US National Cancer Institute (NCI) via MRIGlobal (Kansas City, MO).
as §6, §4

[2] = system: normochromatic erythrocytes; assay: Systemic genotoxicity: frequency of MN NCE in peripheral blood; format: in vivo, Swiss H mice; set-up: unit not given here
urine miRNAs = assay: miRNA expression (microarray), Study 3, urine; format: in vivo, ICR (CD-1) mice
Experimental: as §1, §2, §3, §4

urinary bladder miRNAs = assay: miRNA expression (microarray), Study 3, urinary bladder; format: in vivo, ICR (CD-1) mice
Experimental: as §1, §2, §3, §4

[3] = low dose (20 mg/kg diet) vs sham
[4] = females, MCS-exposed mice given celecoxib
[5] = males, MCS-exposed mice given celecoxib
[6] = urine, low dose (20 mg/kg diet) vs sham

## Cc1ccc(-c2cc(C(F)(F)F)nn2-c2ccc(S(N)(=O)=O)cc2)cc1 [Celecoxib, 4-[5-(4-methylphenyl)-3-(trifluoromethyl)-1H-pyrazol-1-yl] benzene-1-sulfonamide]
Lung miRNAs
  miR-361 upregulation: 8 fold
Lung miRNAs; MCS-exposed mice
  upregulated/downregulated miRNAs: 0/1
Lung miRNAs; MCS-free mice
  upregulated/downregulated miRNAs: 14/0
Lung miRNAs; high dose
  number of miRNAs modulated by celecoxib: 15
Lung miRNAs; low dose
  number of miRNAs modulated: 3
Lung miRNAs; [3]
  miR-296 upregulation: 2.4 fold
  miR-551b upregulation: 2.2 fold
Lung miRNAs; low dose (20 mg/kg diet), compared to MCS-exposed mice
  miR185 downregulation: 2.8 fold
[1]
  plasma concentration: 1600 ng/mL
Spleen miRNAs; MCS-exposed mice
  upregulated/downregulated miRNAs: 1/7
Spleen miRNAs; MCS-free mice
  miR-30c-2-5p downregulation: 7 fold
  upregulated/downregulated miRNAs: 2/7
Spleen miRNAs; high dose
  number of miRNAs modulated by celecoxib: 17
Kidney miRNAs; MCS-exposed mice
  upregulated/downregulated miRNAs: 0/0
Kidney miRNAs; MCS-free mice
  miR-30c-2-3p downregulation: 14 fold
  miR-30c-2-5p downregulation: 13 fold
  miR-30e downregulation: 8 fold
  miR-185-5p downregulation: 25 fold
  miR-301 downregulation: 7 fold
  miR-802-3p downregulation: 6 fold
  miR-1964-5p downregulation: 7 fold
  upregulated/downregulated miRNAs: 7/20
Kidney miRNAs; high dose
  number of miRNAs modulated by celecoxib: 27
Body weight, Study 1; [4]
  body weight: 26.7 ± 0.56 g
Body weight, Study 1; females
  body weight: 27.8 ± 0.80 g
Body weight, Study 1; [5]
  body weight: 34.6 ± 1.55 g
Body weight, Study 1; males
  body weight: 37.2 ± 0.97 g
Heart DNA; F
  Bulky DNA adducts: 3.6 ± 0.37^c adducts/10^8 nucleotides
Heart DNA; M
  Bulky DNA adducts: 3.3 ± 0.18^c adducts/10^8 nucleotides
Heart DNA; M + F
  Bulky DNA adducts: 3.4 ± 0.17^c adducts/10^8 nucleotides
Heart DNA; combined genders
  decrease of DNA adduct levels vs MCS-exposed mice without celecoxib: 1.3 fold
  increase of DNA adduct levels over sham-exposed mice: 2.2 fold
Heart DNA; females
  decrease of DNA adduct levels vs MCS-exposed mice without celecoxib: 1.5 fold
  increase of DNA adduct levels over sham-exposed mice: 2.4 fold
Heart DNA; males (not statistically significant)
  decrease of DNA adduct levels vs MCS-exposed mice without celecoxib: 1.1 fold
Heart DNA; males
  increase of DNA adduct levels over sham-exposed mice: 2.1 fold
Lung DNA; MCS-exposed mice given celecoxib
  increase of pulmonary DNA adducts vs sham-exposed mice: 8.5 fold
Lung DNA; combined genders
  increase of pulmonary DNA adducts vs sham-exposed mice: 3.3 fold
Lung DNA; lung, F
  Bulky DNA adducts: 4.3 ± 0.34^b adducts/10^8 nucleotides
Lung DNA; lung, M
  Bulky DNA adducts: 4.3 ± 0.40^b adducts/10^8 nucleotides
Lung DNA; lung, M + F
  Bulky DNA adducts: 4.3 ± 0.25^b adducts/10^8 nucleotides
Lung DNA; lung, MCS-free mice
  autoradiographic spots absent in sham-exposed mice: 3
Body weight, Study 3; females, MCS-exposed, high dose celecoxib
  body weight: 26.7 ± 0.56
Body weight, Study 3; females, MCS-exposed, low dose celecoxib
  body weight: 30.9 ± 1.24
Body weight, Study 3; females, smoke-free, high dose (1,600 mg/kg diet)
  body weight: 31.5 ± 0.98
Body weight, Study 3; females, smoke-free, low dose (20 mg/kg diet)
  body weight: 32.6 ± 1.82
Body weight, Study 3; males, smoke-free, high dose (1,600 mg/kg diet)
  body weight: 42.1 ± 0.61
[2]; females, 4 months of age
  frequency of MN NCE: 0.8 ± 0.08
[2]; [4]
  frequency of MN NCE: 1.2 ± 0.08
[2]; males, 4 months of age
  frequency of MN NCE: 1.4 ± 0.12
[2]; [5]
  frequency of MN NCE: 2.2 ± 0.15
Urine miRNAs; urine, high dose
  number of miRNAs modulated: 3
Urine miRNAs; urine, low dose
  number of miRNAs modulated: 2
Urine miRNAs; [6]
  miR-290 downregulation: 2.4 fold
  miR-1945b downregulation: 2.4 fold
Urine miRNAs; urines, MCS-free mice
  upregulated/downregulated miRNAs: 0/3
Urine miRNAs; urines, high dose
  number of miRNAs modulated by celecoxib: 3
Urinary bladder miRNAs; MCS-exposed mice
  miR-30c-2-3p downregulation: 7 fold
  miR-30e upregulation: 6 fold
  miR-185-5p downregulation: 14 fold
  miR-701-3p upregulation: 5 fold
  miR-802-3p upregulation: 5 fold
  miR-1964-5p downregulation: 5 fold
  upregulated/downregulated miRNAs: 8/12
Urinary bladder miRNAs; MCS-free mice
  miR-30c-2-5p downregulation: 10 fold
  miR-30e downregulation: 8 fold
  miR-185-5p downregulation: 20 fold
  miR-301 downregulation: 8 fold
  upregulated/downregulated miRNAs: 0/10
Urinary bladder miRNAs; high dose
  number of miRNAs modulated by celecoxib: 30
